From a melting point compilation (Tetko et al.; mined from patent text by program, amines drawn as free bases though some values may be those of a salt)

Point of comparison: `CCCOc1ccc(Cc2nn(-c3ccccc3Cl)c(=O)o2)cc1`, melting point 68 °C. Against it:
- COC(=O)[C@@H]1OCN(NS(=O)(=O)c2ccc([N+](=O)[O-])cc2)[C@H]1c1ccccc1 — higher, 160 to 162 °C
- c1ccc(C(c2ccccc2)N2CCN(CCCCCCNc3ccc4nncn4n3)CC2)cc1 — higher, 133 to 139 °C
- C1=C2c3ccccc3C3CC2(CN1Cc1ccccc1)c1ccccc13 (stereo not given) — higher, 135 to 145 °C
- CC1(C)C=C(c2c(N)c(=O)c2=O)c2cc(C#N)ccc2O1 — higher, > 250 °C
- COC(=O)c1nn(-c2cccc(C(F)(F)F)c2)cc(OC)c1=O — higher, 169 to 170 °C
- c1ccc(-n2c(Cn3ccnc3)nc3ccccc32)cc1 — higher, 116 to 117 °C
- O=C1c2ccc(C(F)(F)F)cc2CCC1CN1CCC2(CC1)C(=O)NCN2c1ccccc1 (stereo not given) — higher, 159 to 162 °C
- Cc1cc(Oc2cc(F)ccc2[N+](=O)[O-])n[nH]1 — higher, 95 to 97 °C
- CONS(=O)(=O)c1cc(Cl)ccc1Cl — higher, 127 to 128 °C
- CC(C)(O)Cn1cnc2c(N)nc3cc(OCc4ccccc4)ccc3c21 — higher, 254 to 257 °C
- CC(C)(C)OC(=O)N[C@@H](COc1ccccc1N)C(=O)O — higher, 90 to 91 °C
- N#Cc1cnn2c(-c3cc(Cl)ccc3Cl)ccnc12 — higher, 202 to 204 °C
- CCOC(=O)c1c(C)nc(S)c([N+](=O)[O-])c1NCCCN(C)C — higher, 131 to 132 °C
- C[C@H](NC(=O)OC(C)(C)C)C(=O)N[C@H]1CCNC1 — higher, 137 to 138 °C
- CCOC(=O)c1cc(Cl)c(Cl)c(-c2cc(C)no2)c1C — higher, 86 to 88 °C
- O=C(O)c1ccccc1Oc1cc(Cl)c(Cl)cc1NS(=O)(=O)c1cc(C(F)(F)F)cc(C(F)(F)F)c1 — higher, 139 to 140 °C
- CCCOC(=O)Nc1ccc(OCC2CC2(Cl)Cl)c(Cl)c1 (stereo not given) — lower, 57 to 59 °C
- OCc1nccn1CCc1ccccc1 — higher, 75.4 °C
- Cc1ccc(S(=O)(=O)C[C@H]2CN3C(=O)C[C@@H]3O2)cc1 (racemic) — higher, 120 to 121 °C
- CC(C)(C)OC(=O)[C@@H]1CC[C@@H]2C=C[C@H]3CCN(C(=O)OC(C)(C)C)[C@@H]3C(=O)N21 — higher, 147 to 149 °C
- CSc1nc(Cl)c(C#N)c(N2CCc3ccccc3CC2)n1 — higher, 144 to 150 °C
- Cc1cc(F)cc2c1-c1ccc(F)cc1C21NC(=O)NC1=O (stereo not given) — higher, > 320 °C
- CON=C1c2ccccc2-c2c(N3CCNCC3)nc3ccccc3c21 — higher, 149 to 150 °C
- CC(=O)OCC1=C(C(=O)O)N2C(=O)C(NC(=O)Cc3ccc(CN=[N+]=[N-])cc3)C2SC1 (stereo not given) — higher, 135 to 136 °C
- CCCCCCCCCC[C@@H]1C(=O)OC(c2ccccc2)=C[C@@H]1C(=O)OC — higher, 108 to 111 °C
- CCCOc1ncc(I)cc1C(=O)Nc1c(CC)nn(CCN2CCOCC2)c1C(N)=O — higher, 180 °C
- CSc1ccc(-c2cc(C#N)c(=O)[nH]c2C)cc1 — higher, 275 to 276 °C
- CN(C)C(=O)N1CCC2(CC1)CN=C(c1cc3cccc(N(C)S(=O)(=O)c4cccs4)c3[nH]1)S2 — higher, 245 °C
- CC(C)(C)OC(=O)Nc1ccc(C#Cc2ccccc2)cc1[N+](=O)[O-] — higher, 146 to 148 °C
- N#Cc1cccc(C2=Nc3ccc(C#CC4=CC(=O)CCC4)cc3NC(=O)C2)c1 — higher, 110 °C
- COCc1nc(C(C)(C)O)c(C(=O)OCOC(=O)C(C)(C)C)n1Cc1ccc(-c2ccccc2-c2nnn[nH]2)cc1 — higher, 71 to 72 °C
- COc1cc(OC)cc(C(=CC#N)c2ccc(OC)c(N)c2)c1 — higher, 93 to 95 °C
- O=C1NC(=O)C(N(CC#Cc2ccc(F)cc2)c2ccc(CCNCC(O)COc3ccc(OCc4ccccc4)cc3)cc2)S1 (stereo not given) — higher, 99 to 101 °C
- N#Cc1ccc2c(c1)OC(c1ccccc1)(c1ccccc1)O2 — higher, 106 to 107 °C
- COc1cc(S(=O)(=O)c2ccncc2)ccc1[N+](=O)[O-] — higher, 123 to 124 °C
- O=C1NC(=O)c2c3ccccc3cc3cccc1c23 — higher, 310 °C
- Nc1ccc2ccc(O)cc2c1 — higher, 186 to 188 °C
- Oc1cc(-c2ncnc(C(F)(F)F)c2Cl)c(F)cc1Cl — higher, 130 to 132 °C
- CC(C)(C)c1ccc(OCCCN2CCC(C(O)(c3ccc(F)cc3)c3ccc(F)cc3)CC2)cc1 — higher, 126 to 127 °C
- Cc1cc(Br)ccc1NC(=O)CC(=O)NCCO — higher, 139 to 142 °C
- CCCCn1c(COCC)nc2c(N)nc3ccc(Br)cc3c21 — higher, 182 to 183 °C
- CSc1nn(-c2c(Cl)cc(Cl)cc2Cl)c(N)c1C(N)=O — higher, 198 to 199 °C
- O=C(O)c1cccnc1C1=NC(=O)C2(CCCCC2)N1 — higher, 186 to 189 °C
- CCCCCCS(=O)(=O)c1nn2c(=O)c(Cl)c(F)nc2s1 — higher, 185 to 188 °C
- Cc1ccc(NC(=O)c2cccc(N3CCOCC3)c2)cc1NC(=O)c1cccc(N(C)S(C)(=O)=O)c1 — higher, 208 to 209 °C
- O=c1c(CO)cc(-c2ccc3c(c2)CCO3)nn1CC=Cc1ccc(Cl)cc1 — higher, 131 to 141 °C
- O=C(O)CCCCCCCCCNS(=O)(=O)c1ccc(Cl)cc1 — higher, 192 to 194 °C
- Cc1ccc(-n2ncc(C(=O)Nc3ccc(N4CCN(C5CCOCC5)CC4)c(C#N)c3)c2C)cc1 — higher, 258 °C
- Cn1nc(-c2ccc(C#N)cc2)cc(C(=O)N[C@H]2CC[C@H](C(=O)O)CC2)c1=O — higher, 283 to 286 °C
- CC(C)c1c(C=CC(=O)CC(O)CC(=O)O)c(-c2ccccc2)c2c3ccccc3ccn12 (stereo not given) — higher, 95 to 100 °C
- COc1cccc(-n2c(-c3sc(Nc4ccc(Cl)cc4)nc3C)nc3ccccc3c2=O)c1 — higher, 243 to 244 °C
- CCCc1c(O)ccc2c1OCCC2=O — higher, 126 to 129 °C
- Cc1ccc(C(=O)n2c3c(c4cc(F)ccc42)CC(C(=O)O)CC3)cc1 (stereo not given) — higher, 229 to 231 °C
- O=C(Nc1ccccn1)C(CC1CCCC1)c1ccc(-c2cccnc2)cc1 (stereo not given) — higher, 139 to 140 °C
- COc1cc2c(c3c1OC(C)(C)C3)C(c1cccc(N(C)C(N)=O)c1)=NC(C)(C)C2 — higher, 108 to 109 °C
- CC(C(O)c1ccc2[nH]c(=O)[nH]c2c1)N1CCC(Cc2ccccc2)CC1 (stereo not given) — higher, 221 to 222 °C
- CC(C)(C)c1ccc(/C=N/OCCOc2ccc(C(=O)O)c(OC(=O)c3ccc(C(F)(F)F)cc3)c2)cc1 — higher, 146 to 148 °C
- O=C(N[C@H]1C=C[C@@H](C(=O)O)C1)c1ccccc1 — higher, 150 to 151 °C
- CC(=O)Nc1c(C(=O)c2ccncc2)[nH]c2cc(Cl)ccc12 — higher, 262 to 264 °C
- O=C(O)C1c2cc(F)ccc2-c2ccc(F)cc21 — higher, 161 to 163 °C
- N#Cc1cc(F)c(N=c2snc3n2CCCC3)cc1F — higher, 137 °C
- CCCCNC(=O)NS(=O)(=O)c1ccc(CCNC(=O)N2CCC(C)CC2=O)cc1 (stereo not given) — higher, 159 to 161 °C
- CCOc1ccccc1C1=NN(C(=O)c2cccnc2)CC1 — higher, 155 to 157 °C
- COC(=O)c1cc(=O)c2cc3[nH]c(=O)oc3cc2[nH]1 — higher, 297 °C
- CC(O)C#CC1CCC2C3CCC4CC(O)CCC4(C)C3CCC12C (stereo not given) — higher, 169 to 171 °C
- CNc1cccc(-c2nc(=O)c3ccccc3s2)n1 — higher, 207 to 208 °C
- CN(c1cc(OC(F)(F)F)cc2cc(C3=NCC(CC(N)=O)S3)[nH]c12)S(=O)(=O)c1cccs1 (stereo not given) — higher, 202 to 203 °C
- COc1cc(C(=O)N2Cc3ccc(C(=O)NCc4cccnc4)n3Cc3ccccc32)ccc1-c1ccccc1C — higher, 165 to 167 °C
- COc1cc(Sc2ccncc2)cc2ccoc12 — higher, 81 to 83 °C
